Results published in patent US20240376126A1, “PRMT5 INHIBITOR AND THE USE THEREOF” (CYTOSINLAB THERAPEUTICS CO., LTD., priority 2022, published 2024).
Where two headings read alike, the source gives them in different places.

Experiments:
[1] = tested on: HCT116 MTAP WT cells; assay: Proliferation inhibition of HCT116 cells in vitro (CellTiter Glo, 6 days); format: cell-based; conditions: read-out: Cell proliferation inhibition rate HCT116 MTAP WT IC50 (nm)
From the text: (§1) Biological Test Example 2 Proliferation Inhibition of HCT116 and HCT116 MTAP-KO Cells In Vitro
(§2) HCT116 cell line was purchased from the Chinese Academy of Sciences Cell Bank, and the MTAP gene was knocked out by CRISPR/Cas9 technology to obtain HCT116-MTAP-KO cell line.
(§3) McCoy's 5A medium (Gibco, catalog No. 16600082), fetal bovine serum (Gibco, catalog No. 10099141C), penicillin-streptomycin double antibody (Gibco, catalog No. 15140122), pancreatic enzyme (Gibco, catalog No. 25200056), CellTiter Glo assay kit (Promega, catalog No. G7572), 384-well transparent flat-bottomed black walled cell culture plate (Corning, catalog No. 3764), ultra micro sampler (Tecan, catalog No. D300e), Multimode reader (Biotek, catalog No. SynergyHTX)
(§4) • 1. Cell culture: HCT116 and HCT116-MTAP-KO cells were cultured in McCoy'5A medium+10% fetal bovine serum+1% penicillin-streptomycin double antibody; to ensure that they were always in the logarithmic growth phase and the cell viability greater than 95%. • 2. Compound concentration gradient preparation: The compound to be tested was added to a 384-well plate using an ultra micro sampler, starting from 30 μM (HCT116 cells) or 3 μM (HCT116-MTAP-KO cells), and diluted with DMSO at 3 times for a total of 9 concentrations and set up three duplicate wells. • 3. Treatment of cells with compounds: Trypsin-digested HCT116 or HCT116-MTAP-KO cell suspension was added to the 384-well plates spotted with the compounds to be tested at 40 μL per well, i.e., 100 cells per well, and the final concentration of DMSO was 0.4%. The cell culture plate was incubated at 37° C. in a 5% CO2 incubator for 6 days. • 4. Detection: 20 μL of CellTiter Glo reagent was added to each well of the cell culture plate and incubated at room temperature for 30 minutes. A multimode reader was used to detect the luminescence signal at […]. • 5. Data analysis:
(§5) The data was fitted with GraphPad Prism 8.0 software using a four parameter inhibitor-reaction model to obtain the […] (half inhibitory concentration) of the test compounds.
(§6) The first column represents cell proliferation inhibition rate HCT116 MTAP WT IC50 (nm), and the second column represents cell proliferation inhibition rate HCT116-MTAP null IC50 (nm): […]

[2] = tested on: HCT116-MTAP-KO (MTAP null) cells; assay: Proliferation inhibition of HCT116 MTAP-KO cells in vitro (CellTiter Glo, 6 days); format: cell-based; conditions: read-out: Cell proliferation inhibition rate HCT116-MTAP null IC50 (nm)
From the text: as §1, §2, §3, §4, §5, §6

Compound | IC50 ([1]; Homo sapiens, HCT-116, 144 h) [µM] | IC50 ([2]; HCT116-MTAP null, 144 h) [µM] | IC50 [1] [µM] | IC50 [2] [µM] | IC50 ([2]; 144 h) [µM]
Cn1ncc(F)c1N(Cc1cn2cc(C(F)(F)F)ccc2n1)C(=O)c1ccc2nc(N)c3cnn(C)c3c2c1 [Example 115] | 0.1 to 1 | < 0.1 | – | – | –
CC(c1ncccn1)N(Cc1cc2ccccn2n1)C(=O)c1ccc2nc(N)c3c(c2c1)CCC3 (centres unmarked) [Example 116] | 1 to 10 | < 0.1 | – | – | –
CCN(C(=O)c1ccc2nc(N)c3c(cnn3C)c2c1)C(C)c1cc2ccccn2n1 (centres unmarked) [Example 117] | 1 to 10 | 0.1 to 1 | – | – | –
CCN(Cc1cc2ccccn2n1)C(=O)c1ccc2nc(N)c3c(cnn3C)c2c1 [Example 118] | 1 to 10 | 0.1 to 1 | – | – | –
CCN(C(=O)c1ccc2nc(N)c3c(c2c1)COC3)C(C)c1cc2ccccn2n1 (centres unmarked) [Example 119, 4-Amino-N-ethyl-N-(1-(pyrazolo[1,5-a]pyridin-2-yl)ethyl)-1,3-dihydrofurano[3,4-c]quinolin-8-carboxamide] | 1 to 10 | < 0.1 | – | – | –
Cc1cc2cc(C(=O)N(Cc3cc4ccccn4n3)C(C)c3ncccn3)ccc2nc1N (centres unmarked) [Example 120] | 1 to 10 | < 0.1 | – | – | –
CCN(Cc1cc2ccccn2n1)C(=O)c1ccc2nc(N)c3c(c2c1)COC3C (centres unmarked) [Example 121] | 1 to 10 | 0.1 to 1 | – | – | –
Cc1cc2cc(C(=O)N(Cc3cc4ccccn4n3)C(C)c3cccc(F)n3)ccc2nc1N (centres unmarked) [Example 122] | 1 to 10 | < 0.1 | – | – | –
C[C@H]1COC[C@@H](c2cc3ccccn3n2)N1C(=O)c1cc2c(cc1F)nc(N)c1cnn(C)c12 [Example 123] | 0.1 to 1 | < 0.1 | – | – | –
C[C@H]1COC[C@@H](c2cc3ccccn3n2)N1C(=O)c1cc2c3c(c(N)nc2cc1F)COC3 [Example 124] | 1 to 10 | < 0.1 | – | – | –
Cc1nn(C)cc1N(Cc1cc2ccc(C(F)(F)F)cn2n1)C(=O)c1ccc2nc(N)c3c(c2c1)COC3 [Example 126] | 1 to 10 | < 0.1 | – | – | –
CC(c1ncccn1)N(Cc1nc2ccccc2[nH]1)C(=O)c1ccc2nc(N)c3c(c2c1)CCC3 (centres unmarked) [Example 128] | 0.1 to 1 | 0.1 to 1 | – | – | –
COCC(C1CC1)N(Cc1nc2ccccc2[nH]1)C(=O)c1ccc2nc(N)c3c(c2c1)CCC3 (centres unmarked) [Example 129] | 1 to 10 | < 0.1 | – | – | –
CC(C)N(Cc1nc2ccccc2[nH]1)C(=O)c1ccc2cc(N)c3c(c2c1)CCC3 [Example 130] | 1 to 10 | < 0.1 | – | – | –
CC(C)CN(Cc1nc2ccc(C(F)(F)F)cc2[nH]1)C(=O)c1ccc2nc(N)c3c(c2c1)COC3 [Example 131] | 1 to 10 | 0.1 to 1 | – | – | –
CC(C)CN(Cc1nc2cc(S(F)(F)(F)(F)F)ccc2[nH]1)C(=O)c1cc2c(cc1F)nc(N)c1cnn(C)c12 [Example 133] | 0.1 to 1 | < 0.1 | – | – | –
CCN(Cc1nc2ccc(C(F)(F)F)cc2[nH]1)C(=O)c1ccc2nc(N)c3c(c2c1)COC3C (centres unmarked) [Example 134] | 1 to 10 | < 0.1 | – | – | –
CCN(Cc1nc2ccccc2[nH]1)C(=O)c1ccc2nc(N)c3c(c2c1)COC3C (centres unmarked) [Example 135] | 1 to 10 | 0.1 to 1 | – | – | –
CC(C)CN(Cc1nc2ccccc2[nH]1)C(=O)c1ccc2nc(N)c3c(c2c1)COC3C (centres unmarked) [Example 136] | 1 to 10 | 0.1 to 1 | – | – | –
Cc1ncc2c(N)nc3cc(F)c(C(=O)N(Cc4nc5ccc(S(F)(F)(F)(F)F)cc5[nH]4)CC(C)C)cc3n12 [Example 139] | 1 to 10 | < 0.1 | – | – | –
CCN(Cc1nc2cc(C(F)(F)F)ccc2[nH]1)C(=O)c1cc2c(cc1F)nc(N)c1cnc(C)n12 [Example 140] | 1 to 10 | 0.1 to 1 | – | – | –
Cc1ncc2c(N)nc3cc(F)c(C(=O)N(Cc4nc5ccc(C(F)(F)F)cc5[nH]4)c4ccnn4C)cc3n12 [Example 142] | – | – | 1 to 10 | 0.1 to 1 | –
COCC(C1CC1)N(Cc1nc2ccccc2s1)C(=O)c1ccc2nc(N)c(C)cc2c1 (centres unmarked) [Example 146] | 1 to 10 | – | – | – | 0.1 to 1
COCC(C1CC1)N(Cc1nc2cc(C(F)(F)F)ccc2s1)C(=O)c1ccc2nc(N)c(C)cc2c1 (centres unmarked) [Example 150] | 1 to 10 | 0.1 to 1 | – | – | –
COCC(C1CC1)N(Cc1nc2cc(Br)ccc2s1)C(=O)c1ccc2nc(N)c(C)cc2c1 (centres unmarked) [Example 151] | 1 to 10 | 0.1 to 1 | – | – | –
